We go through three compounds from ChEMBL document CHEMBL4041485, “Bissubvilides A and B, Cembrane-Capnosane Heterodimers from the Soft Coral Sarcophyton subviride” (J Nat Prod, 2016).

SMILES strings stand for the structures. Counter-ions that a name gives are not always drawn.

Type in all cases: functional, cell-based
In one test the test system is Huh-7. The experiment in a line: Cytotoxicity against human HuH7 cells by CCK-8 assay.
For a further test, the system named is A549. The experiment in a line: Cytotoxicity against human A549 cells by MTT assay.
The next test deals with MG-63. As to the kind of experiment: Cytotoxicity against human MG63 cells by MTT assay.

`CC1=C2CCC3=CCC[C@@](C)(OC3=O)[C@@H](O)CC/C(C)=C/[C@@H]2[C@@]23CC/C(C(C)C)=C\[C@H]4[C@@](C)(O)CC[C@]4(O)[C@@](C)(CC[C@@H]2C1)OC3=O`: the IC50 is > 50 µM in the test with Huh-7, > 25 µM with A549 and > 30 µM in the test on MG-63.
In the case of `C=C(C)/C1=C/[C@H]2[C@@](C)(O)CC[C@]2(O)[C@@]2(C)CC[C@@H]3CC(C)=C4CCC5=CCC[C@@](C)(OC5=O)[C@@H](O)CC/C(C)=C/[C@@H]4[C@]3(CC1)C(=O)O2`, the half-maximal inhibitory concentration (IC50) is > 50 µM with Huh-7, > 25 µM in the test on A549 and > 30 µM in the test on MG-63.
As to `COc1cccc2c1C(=O)c1c(O)c3c(c(O)c1C2=O)C[C@@](O)(C(=O)CO)C[C@@H]3O[C@H]1C[C@H](N)[C@H](O)[C@H](C)O1` [DOXORUBICIN HYDROCHLORIDE], the IC50 in the test on Huh-7 was 14.8 µM; with A549, 2.9 µM; with MG-63, 2.2 µM.
